Holding throughout (format): in vivo, Danae racemosa L.
In series [1] the test system is Alexandrian laurel seedlings. Kind of series: Culture of germinated seeds in BA-supplemented Woody Plant Medium. The procedure: All cultures described herein were transferred onto fresh media every 4 weeks and incubated in a plant tissue culture grade growth chamber under a 16-h photoperiod and a photo flux density of 37.6±4.8 μmol s^−1m^−2 light per day provided by cool white fluorescent tubes at 23±0.1° C., unless otherwise noted. At 10 weeks, a group of germinated seeds from Example 1 was removed from agar medium containing GA3 and transferred to a supplemented WPM culture further comprising BA (at 1.0, 2.0, or 3.0 mg/L, respectively 4.44, 8.88, or 13.32 μM).

Series [2] relates to Alexandrian laurel seed. The experiment in a line: In vitro germination of seeds in agar medium containing GA3. On the procedure:
Seeds were purchased (Gethsemane Garden and Landscape Services, Inc., Greensboro, N.C.) and disinfected in a 20% bleach solution plus 20 drops Tween-20 per liter for 20 minutes and then rinsed immediately 3 times with sterile purified water.
The disinfected seeds were subsequently transferred to test tubes containing agar medium and 10 ppm GA3. The medium pH was adjusted to 5.8 with 1N KOH or 1 N HCl. The culture medium was sterilized by autoclaving at 121° C. (106 kPa) for 20 minutes.
(§1) All cultures described herein were transferred onto fresh media every 4 weeks and incubated in a plant tissue culture grade growth chamber under a 16-h photoperiod and a photo flux density of 37.6±4.8 μmol s^−1m^−2 light per day provided by cool white fluorescent tubes at 23±0.1° C., unless otherwise noted.
The seeds were prepared according to Materials and Methods above.
The micropropagated plantlets were then potted in soil and transferred to a greenhouse.

Series [3] has as its system Alexandrian laurel seedlings. The experiment in a line: Culture of germinated seeds in TDZ-supplemented Woody Plant Medium. The procedure: as §1
At 10 weeks, a group of germinated seeds from Example 1 was removed from agar medium containing GA3 and transferred to a supplemented WPM culture further comprising TDZ (at 1.0, 2.0, or 3.0 mg/L, respectively 4.54, 9.08, or 13.62 μM).

On to `c1ccc(CNc2ncnc3nc[nH]c23)cc1` [BA, 6-benzylamino purine], for which the seedling development result in series [1] (early growth after the initial seed germination in the presence of BA) is “balanced seedling development by simultaneously promoting shoot growth and slowing down root growth”. The “shoot and root growth of young seedlings compared to Example 1A” value in series [1] (supplemented WPM with BA at 1.0, 2.0 or 3.0 mg/L, about 4 weeks (FIG. 2)) is “more balanced shoot and root growth”.

`C=C1C[C@]23C[C@@]1(O)CC[C@H]2[C@@]12C=C[C@H](O)[C@@](C)(C(=O)O1)[C@H]2[C@@H]3C(=O)O` [GA3, gibberellic acid]: in series [2] (agar medium containing GA3, at 10 weeks (FIG. 1)), the “root and shoot growth of germinated seeds” value is “a lot of root growth and little shoot growth”. In addition, the seed germination entry in series [2] (agar medium with 10 ppm GA3, about 10 weeks) is listed as “a majority of the seeds had germinated”.

`O=C(Nc1ccccc1)Nc1cnns1` [TDZ, [1-phenyl-3-(1,2,3-thidiazol-5-yl)urea]]: the “appearance of root growth points” value in series [3] (after 50 days of treatment in TDZ supplemented WPM) is recorded as “root growth points began to turn brown”. Also, the shoots per seed in series [3] (early growth after the initial seed germination in the presence of TDZ) is on record as 5-10 shoots per seed. Moreover, the shoot formation result in series [3] (supplemented WPM with TDZ at 1.0, 2.0 or 3.0 mg/L, about 50 days (FIG. 3)) is “multiple shoots from each seed”.
